Experimental data: US7956077B2, “2-{-3,′2-(phenyl)-oxazol-4-ylmethoxyl-cyclohexyl methoxy}-propionic acid derivatives used as peroxisome proliferator-activated receptor (PPAR) ligands for the treatment of hyperlipidemia and diabetes” (Sanofi-Aventis Deutschland GmbH, priority 2004, dated 2011)
Values joined by “and” are separate entries in the source; they are usually repeats but may differ in a detail not shown here. Equal values may be shown once.

Assays:
[1] = target: T1, human PPARgamma (Homo sapiens, UniProt P37231); experiment: Cellular PPARgamma assay (transiently transfected HEK cells, luciferase reporter); format: cell-based; conditions: HEK cells transiently transfected with GAL4-humanPPARgammaLBD, 48 h incubation
T1 construct: human PPARgamma receptor (amino acids 1152-Y475); expressed in transfected cells; host or cells: HEK cells, transiently transfected with pcDNA3-GAL4-humanPPARgammaLBD
T1 sequence (P37231 182-477 isoform P37231-2 limits assumed): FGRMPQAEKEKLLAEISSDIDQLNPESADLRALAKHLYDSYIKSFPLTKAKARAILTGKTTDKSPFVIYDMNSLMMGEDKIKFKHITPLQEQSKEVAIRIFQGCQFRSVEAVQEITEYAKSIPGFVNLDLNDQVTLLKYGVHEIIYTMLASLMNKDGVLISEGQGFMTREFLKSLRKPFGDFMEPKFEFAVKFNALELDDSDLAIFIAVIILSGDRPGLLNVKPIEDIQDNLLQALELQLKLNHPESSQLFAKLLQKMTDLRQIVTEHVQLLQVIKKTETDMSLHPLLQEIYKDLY
Text: Determination of EC50 Values of PPAR Agonists in the Cellular PPARgamma Assay
A transient transfection system is employed to determine the cellular PPARgamma activity of PPAR agonists. It is based on the use of a luciferase reporter plasmid (pGL3basic-5×GAL4-TK) and of a PPARgamma expression plasmid (pcDNA3-GAL4-humanPPARgammaLBD). Both plasmids are transiently transfected into human mbryonic kidney cells (HEK cells). There is then expression in these cells of the usion protein GAL4-humanPPARgammaLBD which binds to the GAL4 binding sites of he reporter plasmid. In the presence of a PPARgamma-active ligand, the activated usion protein GAL4-humanPPARgammaLBD induces expression of the luciferase reporter gene, which can be detected in the form of a chemiluminescence signal after addition of a luciferase substrate. As a difference from the stably transfected PPARalpha reporter cell line, in the cellular PPARgamma assay the two components (luciferase reporter plasmid and PPARgamma expression plasmid) are transiently transfected into HEK cells because stable and permanent expression of the PPARgamma fusion protein is cytotoxic.
Construction of the Plasmids
The luciferase reporter plasmid pGL3basic-5×GAL4-TK is based on the vector pGL3basic from Promega. The reporter plasmid is prepared by cloning five binding sites of the yeast transcription factor GAL4 (each binding site with the sequence 5′-CTCGGAGGACAGTACTCCG-3′), together with a 160 bp-long thymidine kinase promoter section (Genbank Accession # AF027128) 5′-upstream into pGL3basic. 3′-downstream of the thymidine kinase promoter is the complete luciferase gene from Photinus pyralis (Genbank Accession # M15077), which is already a constituent of the plasmid pGL3basic used. The cloning and sequencing of the reporter plasmid pGL3basic-5×GAL4-TK took place in analogy to the description in Sambrook J. et. al. (Molecular cloning, Cold Spring Harbor Laboratory Press, 1989).
The PPARgamma expression plasmid pcDNA3-GAL4-humanPPARgammaLBD was prepared by first cloning the cDNA coding for amino acids 1-147 of the yeast transcription factor GAL4 (Genbank Accession # P04386) into the plasmid pcDNA3 (from Invitrogen) 3′-downstream of the cytomegalovirus promoter. Subsequently, the cDNA of the ligand-binding domain (LBD) of the human PPARgamma receptor (amino acids 1152-Y475; Accession # g1480099) 3′-downstream of the GAL4 DNA binding domain was cloned. Cloning and sequencing of the PPARgamma expression plasmid pcDNA3-GAL4-humanPPARgammaLBD again took place in analogy to the description in Sambrook J. et. al. (Molecular cloning, Cold Spring Harbor Laboratory Press, 1989). Besides the luciferase reporter plasmid pGL3basic-5×GAL4-TK and the PPARgamma expression plasmid pcDNA3-GAL4-humanPPARgammaLBD, also used for the cellular PPARgamma assay are the reference plasmid pRL-CMV (from Promega) and the plasmid pBluescript SK(+) from Stratagene. All four plasmids were prepared using a plasmid preparation kit from Qiagen, which ensured a plasmid quality with a minimal endotoxin content, before transfection into HEK cells.
The activity of PPARgamma agonists is determined in a 4-day assay which is described below. Before the transfection, HEK cells are cultivated in DMEM medium (#41965-039, Invitrogen) which is mixed with the following additions: 10% FCS (#16000-044, Invitrogen), 1% penicillin-streptomycin solution (#15140-122, Invitrogen) and 2 mM L-glutamine (#25030-024, Invitrogen).
Firstly, solution A, a transfection mixture which contains all four plasmids previously described in addition to DMEM medium, is prepared. […]

[2] = target: T2, human PPARalpha (Homo sapiens, UniProt Q07869); experiment: Cellular PPARalpha assay (stably transfected HEK luciferase reporter cell line); format: cell-based; conditions: PPARalpha reporter cell line (HEK, GR-GAL4-humanPPARalpha-LBD), 24 h incubation
T2 construct: human PPARalpha receptor (amino acids S167-Y468); expressed in transfected cells; host or cells: HEK cells, stably transfected (pcDNA3 construct)
T2 sequence (Q07869 167-468): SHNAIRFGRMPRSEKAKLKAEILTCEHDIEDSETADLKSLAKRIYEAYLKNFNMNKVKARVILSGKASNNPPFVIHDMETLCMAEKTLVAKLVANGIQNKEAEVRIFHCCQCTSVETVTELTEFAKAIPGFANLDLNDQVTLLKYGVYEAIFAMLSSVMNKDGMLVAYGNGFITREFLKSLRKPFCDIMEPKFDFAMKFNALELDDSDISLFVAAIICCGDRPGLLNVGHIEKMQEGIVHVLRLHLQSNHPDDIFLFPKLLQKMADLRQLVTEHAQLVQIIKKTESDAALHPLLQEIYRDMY
Procedure: Determination of EC50 Values of PPAR Agonists in the Cellular PPARalpha Assay
The potency of substances which bind to human PPARalpha and activate it in an agonistic manner is analyzed using a stably transfected HEK cell line (HEK=human embryo kidney) which is referred to here as PPARalpha reporter cell line. It contains two genetic elements, a luciferase reporter element (pdeltaM-GAL4-Luc-Zeo) and a PPARalpha fusion protein (GR-GAL4-humanPPARalpha-LBD) which mediates expression of the luciferase reporter element depending on a PPARalpha ligand. The stably and constitutively expressed fusion protein GR-GAL4-humanPPARalpha-LBD binds in the cell nucleus of the PPARalpha reporter cell line via the GAL4 protein portion to the GAL4 DNA binding motifs 5′-upstream of the luciferase reporter element which is stably integrated in the genome of the cell line. There is only little expression of the luciferase reporter gene without addition of a PPARalpha ligand if fatty acid-depleted fetal calf serum (cs-FCS) is used in the assay. PPARalpha ligands bind and activate the PPARalpha fusion protein and thereby bring about expression of the luciferase reporter gene. The luciferase which is formed can be detected by means of chemiluminescence via an appropriate substrate.
Construction of the Cell Line
The PPARalpha reporter cell line was prepared in two steps. Firstly, the luciferase reporter element was constructed and stably transfected into HEK cells. For this purpose, five binding sites of the yeast transcription factor GAL4 (in each case 5′-CGGAGTACTGTCCTCCGAG-3′) were cloned in 5′-upstream of a 68 bp-long minimal MMTV promoter (Genbank Accession # V01175). The minimal MMTV promoter section contains a CCAAT box and a TATA element in order to enable efficient transcription by RNA polymerase II. The cloning and sequencing of the GAL4-MMTV construct took place in analogy to the description of Sambrook J. et. al. (Molecular cloning, Cold Spring Harbor Laboratory Press, 1989). Then the complete Photinus pyralis luciferase gene (Genbank Accession # M15077) was cloned in 3′-downstream of the GAL4-MMTV element. After sequencing, the luciferase reporter element consisting of five GAL4 binding sites, MMTV promoter and luciferase gene was subcloned into a plasmid which confers zeozin resistance in order to obtain the plasmid pdeltaM-GAL4-Luc-Zeo. This vector was transfected into HEK cells in accordance with the statements in Ausubel, F. M. et al. (Current protocols in molecular biology, Vol. 1-3, John Wiley & Sons, Inc., 1995).
In a second step, the PPARalpha fusion protein (GR-GAL4-humanPPARalpha-LBD) was introduced into the stable cell clone described. For this purpose, initially the cDNA coding for the N-terminal 76 amino acids of the glucocorticoid receptor (Genbank Accession # P04150) was linked to the cDNA section coding for amino acids 1-147 of the yeast transcription factor GAL4 (Genbank Accession # P04386). The cDNA of the ligand-binding domain of the human PPARalpha receptor (amino acids S167-Y468; Genbank Accession # S74349) was cloned in at the 3′ end of this GR-GAL4 construct. The fusion construct prepared in this way (GR-GAL4-humanPPARalpha-LBD) was subcloned into the plasmid pcDNA3 (from Invitrogen) in order to enable constitutive expression therein by the cytomegalovirus promoter. This plasmid was linearized with a restriction endonuclease and stably transfected into the previously described cell clone containing the luciferase reporter element. The finished PPARalpha reporter cell line which contains a luciferase reporter element and constitutively expresses the PPARalpha fusion protein (GR-GAL4-humanPPARalpha-LBD) was isolated by selection with zeozin (0.5 mg/ml) and G418 (0.5 mg/ml).
The activity of PPARalpha agonists is determined in a 3-day assay which is described below: […]

Row | Compound | EC50 [1] [nM] | EC50 [2]
1 | CCCC(C)(OC[C@@H]1CCC[C@H](OCc2nc(-c3ccc4ccccc4c3)oc2C)C1)C(=O)O (mixture of isomers) [Example 15, 2-Methyl-2-{(1R,3S)-3-[5-methyl-2-(naphth-2-yl)oxazol-4-ylmethoxy]-cyclohexylmethoxy}pentanoic acid] | 160 | 0.39 nM
2 | CCc1oc(-c2ccc(CC(C)C)cc2)nc1CO[C@H]1CCC[C@@H](COC(C)(C)C(=O)O)C1 [Example 3, 2-{(1R,3S)-3-[5-Ethyl-2-(4-isobutylphenyl)-oxazol-4-ylmethoxy]cyclohexylmethoxy}-2-methylpropionic acid] | 670 | 19 nM
3 | Cc1oc(-c2ccc3ccccc3c2)nc1CO[C@H]1CCC[C@@H](COC(C)(Cc2ccccc2)C(=O)O)C1 (mixture of isomers) [Example 21, 2-Methyl-2-{(1R,3S)-3-[5-methyl-2-(naphth-2-yl)oxazol-4-ylmethoxy]-cyclohexyimethoxy}-3-phenylpropionic acid] | 600 | 5.8 nM
4 | CCc1oc(-c2ccc(C)cc2)nc1CO[C@H]1CCC[C@@H](COC(C)(C)C(=O)O)C1 [Example 2, 2-[(1R,3S)-3-(5-Ethyl-2-p-tolyloxazol-4-ylmethoxy)cyclohexylmethoxy]-2-methylpropionic acid] | 2900 | 3.5 nM
5 | CCCC(C)(OC[C@@H]1CCC[C@H](OCc2nc(-c3ccc(C)cc3)oc2CC)C1)C(=O)O (mixture of isomers) [Example 11, 2-[(1R,3S)-3-(5-Ethyl-2-p-tolyloxazol-4-ylmethoxy)cyclohexylmethoxy]-2-methyl-pentanoic acid] | 870 | 4.1 nM
6 | CCc1oc(-c2ccc3ccccc3c2)nc1CO[C@H]1CCC[C@@H](COC(C)(Cc2ccccc2)C(=O)O)C1 (mixture of isomers) [Example 19, 2-{(1R,3S)-3-[5-Ethyl-2-(naphth-2-yl)oxazol-4-ylmethoxy]cyclohexylmethoxy}-2-methyl-3-phenylpropionic acid] | 540 | 0.38 nM
7 | Cc1oc(-c2ccc(F)cc2)nc1COC1CCCC(COC(C)(C)C(=O)O)C1 (stereo not drawn) [**] | > 10000 | 4.5 nM
8 | CCCC(C)(OC[C@@H]1CCC[C@H](OCc2nc(-c3cccc(OC)c3)oc2CC)C1)C(=O)O (mixture of isomers) [Example 10, 2-{(1R,3S )-3-[5-Ethyl-2-(3-methoxyphenyl)oxazol-4-ylmethoxy]cyclohexylmethoxy}-2-methylpentanoic acid] | 130 | 54 nM
9 | CCc1oc(-c2ccc(CC(C)C)cc2)nc1CO[C@H]1CCC[C@@H](COC(C)(Cc2ccccc2)C(=O)O)C1 (mixture of isomers) [Example 18, 2-{(1R,3S)-3-[5-Ethyl-2-(4-isobutylphenyl)oxazol-4-ylmethoxy]cyclohexylmethoxy}-2-methyl-3-phenylpropionic acid] | 150 | 2.6 nM
10 | CCc1oc(-c2cccc(C(F)(F)F)c2)nc1CO[C@H]1CCC[C@@H](COC(C)(C)C(=O)O)C1 [Example 5, 2-{(1R,3S)-3-[5-Ethyl-2-(3-trifluoromethylphenyl)oxazol-4-ylmethoxy]cyclo-hexylmethoxy}-2-methylpropionic acid] | 1500 | 12 nM
11 | Cc1ccc(-c2nc(CO[C@H]3CCC[C@@H](COC(C)(C)C(=O)O)C3)c(C)o2)cc1 [*] | > 10000 | –
12 | CCCC(C)(OC[C@@H]1CCC[C@H](OCc2nc(-c3ccc4ccccc4c3)oc2CC)C1)C(=O)O (mixture of isomers) [Example 13, 2-{(1R,3S)-3-[5-Ethyl-2-(naphth-2-yl)oxazol-4-ylmethoxy]cyclohexylmethoxy}-2-methylpentanoic acid] | 130 | 6.6 nM
13 | CCCC(C)(OC[C@@H]1CCC[C@H](OCc2nc(-c3ccc(C(C)C)cc3)oc2CC)C1)C(=O)O (mixture of isomers) [Example 14, 2-{(1R,3S)-3-[5-Ethyl-2-(4-isopropylphenyl)oxazol-4-ylmethoxy}cyclohexylmethoxy]-2-methylpentanoic acid] | – | 0.38 nM and 0.53 nM
